Test results taken from US9518015B2, “EP1 receptor ligands” (LABORATORIOS DEL DR. ESTEVE, S.A., priority 2011, dated 2016).

Target: T1, human EP1 receptor (Homo sapiens, UniProt P34995)
T1 sequence (P34995 1-402): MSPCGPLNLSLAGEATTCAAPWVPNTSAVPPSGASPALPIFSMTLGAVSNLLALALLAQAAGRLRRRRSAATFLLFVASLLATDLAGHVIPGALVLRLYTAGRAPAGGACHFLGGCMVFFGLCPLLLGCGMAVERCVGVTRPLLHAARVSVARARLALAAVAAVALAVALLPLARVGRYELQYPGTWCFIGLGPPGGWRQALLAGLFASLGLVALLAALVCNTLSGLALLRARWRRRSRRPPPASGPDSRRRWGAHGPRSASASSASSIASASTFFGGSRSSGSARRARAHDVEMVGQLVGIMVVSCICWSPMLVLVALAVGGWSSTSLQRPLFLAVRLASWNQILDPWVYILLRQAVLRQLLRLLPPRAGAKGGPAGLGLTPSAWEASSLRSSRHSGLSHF
Experiment: Test 2: Measurement of IP1 responses by HTRF, suspended HEK-293 cells stably expressing human EP1 receptors, PGE2 30 nM
Format: cell-based
Design: expressed in transfected cells
Settings: HEK293, at 10 μM, read-out: Results of Test 2 (Functional assay), % inh
Experimental: Test 2: Measurement of IP1 responses by Homogeneous Time Resolved Fluorescence
IP1 measurements on HEK-293 cells that stably expressed human EP1 receptors were performed by using a system based on Homogeneous Time Resolved Fluorescense (HTRF) (Gabriel et al., 2003). This technology allows the direct measurement of IP1 in living cells. The principle of this assay is based on competition between IP1 produced by cells and IP1-d2 conjugate for the binding with monoclonal anti-IP1-cryptate conjugate. The HTRF IP1 kit from CisBio was used according to the manufacturer's directions. The experimental procedure was performed as stated below.
Suspended cells (30,000 cells per well) were added to 96-well culture plates in 40 μl of stimulation buffer (supplied by the kit). Compounds were then added in 20 μl of stimulation buffer and incubated at 37° C. for 15 minutes followed by 10 μl of PGE2 to a final concentration of […]. After 90 minutes at 37° C., the reaction was stopped lysing the cells with a mixture of 15 μl of cryptate and 15 μl of IP1-d2 prepared in the lysis buffer supplied by the manufacturer. Plates were incubated for an additional hour at room temperature and read at 665 nm/620 nm using an UltraEvolution Plate reader (Tecan).
Antagonist percentage inhibition was calculated relating compounds activity to the 0% inhibition of the wells incubated with 10 nM PGE2 alone and 100% inhibition of the wells incubated with 10 nM PGE2 plus 1 μM of the reference antagonist.

Row | Compound | inhibition at 10 µM [%]
1 | O=C(O)c1cccc2c1ccn2Cc1cc(F)ccc1OCc1cc(F)ccc1Cl [Example 38, 1-(2-((2-chloro-5-fluorobenzyl)oxy)-5-fluorobenzyl)-1H-indole-4-carboxylic acid] | > 75
2 | CC(c1cc(Cl)ccc1OCc1ccc(Cl)cc1F)n1ccc2c(C(=O)O)cccc21 (stereo not shown) [Example 42, 1-(1-(5-chloro-2-((4-chloro-2-fluorobenzyl)oxy)phenyl)ethyl)-1H-indole-4-carboxylic acid] | > 75
3 | O=C(O)c1ccc2c(ccn2Cc2cc(F)ccc2OCc2cc(F)c(F)cc2Cl)c1 [Example 72, 1-(2-((2-chloro-4,5-difluorobenzyl)oxy)-5-fluorobenzyl)-1H-indole-5-carboxylic acid] | > 75
4 | O=C(O)c1cccc2c1ccn2Cc1cc(Cl)cc(Br)c1OCc1c(F)cccc1F [Example 40, 1-(3-bromo-5-chloro-2-((2,6-difluorobenzyl)oxy)benzyl)-1H-indole-4-carboxylic acid] | 45 to 75
5 | O=C(O)c1cccc2c1ccn2Cc1cc(Br)ccc1OCc1c(F)cc(Cl)cc1F [Example 60, 1-(5-bromo-2-((4-chloro-2,6-difluorobenzyl)oxy)benzyl)-1H-indole-4-carboxylic acid] | > 75
6 | O=C(O)c1cccc2c1CCN2Cc1cc(Cl)ccc1OCc1ccc(Cl)cc1F [Example 93, 1-(5-chloro-2-((4-chloro-2-fluorobenzyl)oxy)benzyl)indoline-4-carboxylic acid] | > 75
7 | O=C(O)c1cccc2c1ccn2Cc1cc(Cl)ccc1OCc1cc(F)cc(F)c1 [Example 41, 1-(5-chloro-2-((3,5-difluorobenzyl)oxy)benzyl)-1H-indole-4-carboxylic acid] | > 75
8 | O=C(O)/C=C/c1cccc2c1ccn2Cc1cc(Br)ccc1OCC1CC1 [Example 80, (E)-3-(1-(5-bromo-2-(cyclopropylmethoxy)benzyl)-1H-indol-4-yl)acrylic acid] | > 75
9 | O=C(O)c1ccc2c(ccn2Cc2cc(F)ccc2OCc2cc(F)ccc2Cl)c1 [Example 73, 1-(2-((2-chloro-5-fluorobenzyl)oxy)-5-fluorobenzyl)-1H-indole-5-carboxylic acid] | 45 to 75
10 | O=C(O)c1cccc2c1ccn2Cc1cc(C(F)(F)F)ccc1OCc1c(F)cccc1F [Example 37, 1-(2-((2,6-difluorobenzyl)oxy)-5-(trifluoromethyl)benzyl)-1H-indole-4-carboxylic acid] | > 75

Second part, the molecule after the results:

Row | inhibition at 10 µM [%] | Compound
11 | > 75 | O=C(O)c1ccc2c(ccn2Cc2cc(Cl)ccc2OCc2ccc(F)cc2F)c1 [Example 78]
12 | > 75 | O=C(O)c1cccc2c1ccn2Cc1cc(Br)ccc1OCC1CC1 [Example 8, 1-(5-bromo-2-(cyclopropylmethoxy)benzyl)-1H-indole-4-carboxylic acid]
13 | > 75 | O=C(O)/C=C/c1cccc2c1ccn2Cc1cc(Cl)ccc1OCc1ccc(Cl)cc1F [Example 83, (E)-3-(1-(5-chloro-2-((4-chloro-2-fluorobenzyl)oxy)benzyl)-1H-indol-4-yl)acrylic acid]
14 | > 75 | O=C(O)c1ccc(F)c2c1ccn2Cc1cc(Cl)ccc1OCc1ccc(F)cc1F [Example 100, sodium 1-(5-chloro-2-((2,4-difluorobenzyl)oxy)benzyl)-7-fluoro-1H-indole-4-carboxylate]

Same assay, conditions: at 10 μM

Row | Results of Test 2 (Functional assay), % inh | Compound
15 | $$ (45 < % inh < 75) | O=C(O)CCc1cccc2c1ccn2Cc1cc(Cl)ccc1OCc1ccc(Cl)cc1F [Example 89, 3-(1-(5-chloro-2-((4-chloro-2-fluorobenzyl)oxy)benzyl)-1H-indol-4-yl)propanoic acid]
16 | $ (% inh > 75) | O=C(O)CCc1cccc2c1ccn2Cc1cc(Cl)ccc1OCc1ccc(Cl)cc1F [Example 62, 3-(1-(5-chloro-2-((4-chloro-2-fluorobenzyl)oxy)benzyl)-1H-indol-4-yl)propanoic acid]
